These results are taken from PubChem BioAssay (NCI).

Common to all, as to assay: DTP human tumour cell line panel, 48 h
The test system of assay [1] is A498 renal.
For assay [2], the system named is SK-MEL-28 melanoma.
Assay [3] relates to SF-268 CNS.
In assay [4] the test system is HCT-15 colon.
Assay [5] has as its system HOP-92 NSCLC.
The test system of assay [6] is SR leukemia.
The subject of assay [7] is MOLT-4 leukemia.
For assay [8], the system named is HL-60(TB) leukemia.
Assay [9] deals with BT-549 breast.
For assay [10], the system named is MDA-MB-435.

Each structure is given as a SMILES string. Where “and” joins values, the source holds several entries; their conditions need not be identical. Equal entries are not always repeated.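 Protocol summary: plate cells (96-well), add compound at 5 concentrations, incubate 48 h, interpolate endpoints linearly. The concentration for 50% growth inhibition is given as GI50. TGI marks complete inhibition of growth.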

In general, GI50 refers to the concentration that inhibits growth by half. The TGI is the concentration giving total growth inhibition. As for `COc1ccc2c(c1)CC[C@H](O)/C2=C/c1cc(OC)c(OC)c(OC)c1`, the GI50 in [1] is 0.0467 µM; in [2] it was 3.9 µM; in assay [3] it was 0.198 µM; in assay [4], 0.0567 µM; in assay [5], 16.3 µM; in assay [6], 0.0546 µM. In addition, the figures for the GI50 in [7], in [8] and in assay [9] were 0.351 µM, 0.192 µM and 0.147 µM, respectively. Moreover, the TGI in assay [2], in [3], in assay [4], in [5], in [6] and in assay [7] was above 100 µM in each case. Moreover, the results for the TGI in assay [8] and in assay [9] were 0.86 µM and 17.6 µM, respectively.

Regarding `COC(=O)Cc1ccc(Oc2cnc3cc(F)c(F)cc3n2)cc1`, the GI50 in assay [2] is above 100 µM; in assay [3] it was above 100 µM; in assay [4] it was above 100 µM; in assay [5], above 100 µM; in [7] it was 12.7 µM; in assay [8] it was 42.5 µM. Moreover, the GI50 in assay [9] and in [10] was above 100 µM each time. Besides, the TGI in assay [2] was above 100 µM; in assay [3] it was above 100 µM; in assay [4] it was above 100 µM; in assay [5], above 100 µM; in [7] it was 32.9 µM; in assay [8], above 100 µM. Also, the TGI in [9] and in assay [10] was above 100 µM in each case.

Regarding `COc1cc(CNc2ccccc2C(=O)N2CCN(C(=O)c3cc(-c4cc(OC)c(OC)c(OC)c4)n4nc(-c5ccccc5)cc4n3)CC2)cc(OC)c1OC`, the GI50 is 2.15 µM in assay [1]; 5.24 µM in [2]; 4.89 µM in assay [3]; 4.25 µM in assay [4]; 0.581 µM in assay [6]; 3.32 µM in assay [7]. Besides, the GI50 in assay [8] is 1.98 µM; in assay [9], 3.27 µM. Also, the total growth inhibition concentration (TGI) is 20.8 µM in assay [1]; above 100 µM in assay [2]; above 100 µM in assay [3]; above 100 µM in assay [4]; above 100 µM in assay [6]; above 100 µM in assay [7]. Also, the TGI in assay [8] was above 100 µM; in [9], 49.1 µM.

Turning to `Cc1cn2c(/C=N/N=C(N)N)c(-c3cccs3)nc2s1`, the GI50 in assay [3] is 12.9 µM; in assay [4] it was 4.3 µM; in assay [6], 2 µM; in assay [7], 2.37 µM; in assay [9], 8.07 µM; in assay [10], 4.96 µM. The TGI in assay [3] turned out to be 36.6 µM; in assay [4] it was 18.4 µM; in [6] it was 3.99 µM; in assay [7], 4.65 µM; in [9], 22.8 µM; in [10], 18.5 µM.

As for `O=c1c(Cl)c(Cl)c(=O)c2sc3cc(Cl)ccc3[nH]c1=2`, the TGI in assay [1] is above 100 µM; in assay [2], above 100 µM; in [3], above 100 µM; in assay [4], above 100 µM; in assay [5], 33.4 µM; in assay [6] it was 21.5 µM. Further, the TGI is 14.5 µM in [7], 23.7 µM in assay [8] and above 100 µM in assay [10].

On to `Nc1ccn(C2OC(COC(=O)C34CC5CC(CC(C5)C3)C4)C(O)C2O)c(=O)n1` (stereo not drawn), for which the TGI in assay [1], in assay [2], in assay [3], in assay [4], in assay [5] and in assay [7] was above 100 µM each time. The TGI is above 34.1 µM in assay [8], above 100 µM in [9] and above 100 µM in assay [10].

Turning to `SCCSCCCSCCS`, the TGI in assay [2] was above 100 µM; in assay [3], above 100 µM; in assay [4], above 100 µM; in assay [6], 32.7 µM; in assay [7] it was 31.2 µM; in assay [8] it was 45.6 µM. Also, the TGI in [9] and in assay [10] was above 100 µM each time.

Take `COc1nc(N)nc2c1ncn2C1OC(CO)C(O)C1O` (stereo not drawn): the GI50 is above 5000 µM in assay [1]; 2280 µM in [2]; above 5000 µM in [3]; above 5000 µM in assay [4]; 2640 µM in assay [5]; 5.7 µM and 19.5 µM in assay [7]. Besides, the GI50 in assay [8] was 1190 µM; in assay [9] it was above 5000 µM; in assay [10], above 5000 µM. The TGI is above 5000 µM in assay [1]; above 5000 µM in assay [2]; above 5000 µM in assay [3]; above 5000 µM in assay [4]; above 5000 µM in assay [5]; 2260 µM in assay [7]. Moreover, the TGI in [8], in assay [9] and in assay [10] was above 5000 µM throughout.

`COc1ccc(/C=N\Nc2ccc([N+](=O)[O-])cn2)cc1OC`: the GI50 was 3.43 µM in [1]; above 100 µM in [2]; above 100 µM in assay [3]; above 100 µM in [4]; above 100 µM in [6]; above 100 µM in assay [7]. Also, the GI50 in assay [9] and in [10] was above 100 µM each time. Besides, the TGI in [1] is 59.6 µM; in [2], above 100 µM; in [3], above 100 µM; in assay [4] it was above 100 µM; in [6] it was above 100 µM; in [7] it was above 100 µM. Besides, the TGI in [9] and in assay [10] was above 100 µM in each case.

For `CN1C(=O)C(=O)c2cc3c(c4c2c1cc1ccccc14)OCO3`, the TGI in [1] was above 100 µM; in assay [2], above 100 µM; in assay [3] it was above 100 µM; in [4] it was above 100 µM; in assay [5], above 100 µM; in assay [6] it was 54.8 µM. Further, the TGI in [7] is 93.4 µM; in [8], above 100 µM.

Consider `CC1(CCC(=O)OC2CCCCC2)OCCO1`, for which the TGI in assay [1], in assay [2], in [3], in assay [4], in assay [5] and in [6] was above 100 µM in each case. The TGI in assay [7], in [8] and in [10] was above 100 µM each time.
